Values after ≈ are worked out from the molar mass of the structure shown. Active and inactive are the calls of the source. The rule behind the calls is not given here.

We go through 35 compounds from ChEMBL document CHEMBL1155491, “Acylurea connected straight chain hydroxamates as novel histone deacetylase inhibitors: Synthesis, SAR, and in vivo antitumor activity” (Bioorg Med Chem Lett, 2010).

Data set [1] concerns the target T1, Histone deacetylase 1 (Homo sapiens, UniProt Q13547).
Data set [2] deals with T1, Histone deacetylase 1. In words: Inhibition of HDAC1 in human COLO205 cells assessed as induction of histone H3 acetylation at 10 uM by Western-immuno blotting. In kind it is cell-based. Conditions: COLO 205.
Data set [3] concerns the target T1, Histone deacetylase 1. The source holds these as a separate data set.
Data set [4] can be described thus: Solubility at pH 7. Type of data set: physicochemical. Conditions: buffer.
Data set [5] in a line: Half life in human liver microsome. Type of data set: ADME. Conditions: liver microsomes. (Liver microsomes are a subcellular fraction often used to study metabolism.)
Data set [6] deals with HCT-116. In words: Antiproliferative activity against human HCT116 cells. In kind it is functional, cell-based.
A further data set deals with PC-3. Put plainly: Antiproliferative activity against human PC3 cells. In kind it is functional, cell-based.
For the next data set, the system named is A2780. Put plainly: Antiproliferative activity against human A2780 cells. Type of data set: functional, cell-based.
For the next data set, the target named is T2, Histone deacetylase 8 (Homo sapiens, UniProt Q9BY41).
T2 sequence (Q9BY41 whole entry): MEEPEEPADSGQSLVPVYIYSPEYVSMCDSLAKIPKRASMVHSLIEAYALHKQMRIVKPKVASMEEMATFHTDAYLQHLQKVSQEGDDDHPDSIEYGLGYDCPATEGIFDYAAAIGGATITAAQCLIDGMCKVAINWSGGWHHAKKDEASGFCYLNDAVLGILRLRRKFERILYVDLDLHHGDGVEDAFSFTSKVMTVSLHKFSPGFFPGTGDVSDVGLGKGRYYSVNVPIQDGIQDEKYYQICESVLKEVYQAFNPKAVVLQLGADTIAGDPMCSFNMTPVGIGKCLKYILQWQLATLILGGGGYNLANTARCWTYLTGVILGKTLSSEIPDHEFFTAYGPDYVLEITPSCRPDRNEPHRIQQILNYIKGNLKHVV
In words: Inhibition of HDAC8.

A short description of data set [7]: Oral bioavailability in mouse at 50 mg/kg, po. Particulars: in vivo.
A short description of data set [8]: Half life in rat liver microsome. Type of data set: ADME. Conditions: liver microsomes.
Data set [9] in a line: Apparent permeability from apical to basolateral side of Caco-2 cells. In kind it is ADME, cell-based. Conditions: human. (In general: Caco-2 monolayers are a common model of the intestinal barrier.)
A short description of data set [10]: Clearance in mouse at 10 mg/kg, iv. Type of data set: ADME, organism-based. On the set-up: dose 10 mg/kg, route intravenous. Conditions: in vivo.
The nature of data set [11]: Half life in mouse liver microsome. In kind it is ADME. Conditions: liver microsomes.
A short description of data set [12]: Volume of distribution at steady state in mouse at 10 mg/kg, iv. In kind it is ADME, organism-based. On the set-up: dose 10 mg/kg, route intravenous. Conditions: in vivo, read-out: Vdss.
Data set [13] is described as follows: Toxicity in human PC3 cells xenografted nude mouse. In kind it is organism-based, PC-3. Particulars: in vivo.
The test system of data set [14] is HCT-116. Put plainly: Antitumor activity against human HCT116 cells xenografted in BALB/c mouse at 200 mg/kg, po after 21 days. In kind it is functional, organism-based. On the set-up: dose 200 mg/kg.
A short description of data set [15]: Octanol-water distribution coefficient, log D of the compound. Type of data set: physicochemical.
Data set [16] can be described thus: Elimination half life in mouse at 10 mg/kg, iv. Set-up: dose 10 mg/kg, route intravenous. Particulars: in vivo, read-out: beta t1/2 (converted). In kind it is ADME, organism-based.
Data set [17] in a line: Thermodynamic solubility at pH 7.4. In kind it is physicochemical. Conditions: buffer, read-out: Therm_solubility.

T1 sequence (Q13547 whole entry): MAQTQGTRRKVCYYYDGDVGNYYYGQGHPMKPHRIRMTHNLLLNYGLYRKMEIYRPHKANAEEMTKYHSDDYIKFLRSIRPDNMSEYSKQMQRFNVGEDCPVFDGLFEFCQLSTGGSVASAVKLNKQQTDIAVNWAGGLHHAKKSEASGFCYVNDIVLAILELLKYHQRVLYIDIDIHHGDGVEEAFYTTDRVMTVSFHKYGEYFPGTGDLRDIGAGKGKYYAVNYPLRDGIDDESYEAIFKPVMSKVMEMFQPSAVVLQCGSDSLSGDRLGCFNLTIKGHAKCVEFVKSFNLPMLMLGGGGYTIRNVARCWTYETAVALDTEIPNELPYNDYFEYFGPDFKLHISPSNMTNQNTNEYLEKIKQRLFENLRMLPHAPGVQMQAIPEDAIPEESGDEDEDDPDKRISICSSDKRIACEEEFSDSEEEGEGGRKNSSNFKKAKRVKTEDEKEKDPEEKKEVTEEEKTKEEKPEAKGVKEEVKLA

A word on the IC50: it is the point on the concentration scale where inhibition reaches its midpoint. A word on the solubility: it is the concentration that dissolves in the medium under given conditions. Turning to `O=C(CCCCCNC(=O)NC(=O)c1ccc(NC(=O)Cc2ccccc2)cc1)NO`, the IC50 was 13200 nM on Histone deacetylase 1 [1] and 44 nM at Histone deacetylase 1 [3]. The result at Histone deacetylase 1 [2] was Active. Further, the concentration in solution in data set [4] (solubility) came to 28 µM (≈ 11.9 µg/mL).

Regarding `O=C(CCCCCNC(=O)NC(=O)c1ccc(N2CCCC2)c([N+](=O)[O-])c1)NO`, the 50% inhibitory concentration (IC50) against Histone deacetylase 1 [1] came to 3450 nM; at Histone deacetylase 1 [3], 20 nM.

In [5], `O=C(CCCCCNC(=O)NC(=O)c1ccc(-c2cncnc2)cc1)NO` came in with a half-life of over 30 min. For the same compound, the IC50 on Histone deacetylase 1 [1] stood at 10000 nM; against Histone deacetylase 1 [3], 26 nM. Also, the result on Histone deacetylase 1 [2] was Active. The compound further came in with a solubility in data set [4] of 17 µM (≈ 6.31 µg/mL).

For the compound `O=C(CCCCCNC(=O)NC(=O)c1ccc(NCCN2CCCC2)c([N+](=O)[O-])c1)NO`, the IC50 was found to be 1330 nM in the data set on HCT-116 [6]; 2420 nM against Histone deacetylase 1 [1]; 22 nM on Histone deacetylase 1 [3]; 920 nM in the data set with PC-3; 990 nM with A2780. Moreover, the half-life in data set [5] was over 30 min. In addition, on Histone deacetylase 1 [2], the outcome was Active. In data set [4], this compound displayed a solubility of over 205 µM.

With `O=C(CCCCCNC(=O)NC(=O)c1ccc(Cl)cc1)NO`, the results for the concentration for half-maximal inhibition (IC50) against Histone deacetylase 1 [1] and against Histone deacetylase 1 [3] were 1600 nM and 26 nM, respectively.

For `O=C(CCCCCCCNC(=O)NC(=O)c1ccccc1)NO`, the IC50 on Histone deacetylase 1 [1] was 8280 nM; against Histone deacetylase 8, 405 nM.

For `CC(C)(C)c1ccc(C(=O)NC(=O)NCCCCCC(=O)NO)cc1`, the 50% inhibitory concentration (IC50) turned out to be 2350 nM against Histone deacetylase 1 [1] and 24 nM against Histone deacetylase 1 [3].

On to `O=C(CCCCCN(Cc1ccccc1)C(=O)NC(=O)c1ccccc1)NO`, for which the concentration for half-maximal inhibition (IC50) worked out at 3190 nM on Histone deacetylase 1 [1] and 355 nM against Histone deacetylase 1 [3]. The result at Histone deacetylase 1 [2] was Active.

For `CN(C)CC(C)(C)Cn1cnc2cc(C(=O)NC(=O)NCCCCCC(=O)NO)ccc21`, the results for the IC50 at Histone deacetylase 1 [1] and at Histone deacetylase 1 [3] were 3700 nM and 20 nM, respectively.

With `O=C(CCCCCNC(=O)NC(=O)c1cccc(Br)c1)NO`, the IC50 on Histone deacetylase 1 [1] stood at 3150 nM; at Histone deacetylase 1 [3] it was 60 nM.

As for `O=C(CCCCCCN(Cc1ccccn1)C(=O)NC(=O)c1ccccc1)NO`, the IC50 against Histone deacetylase 1 [1] is 9060 nM; on Histone deacetylase 1 [3], 555 nM.

In general, bioavailability refers to dose-corrected exposure relative to a reference, in per cent. Read a high bioavailability as much systemic uptake. As a reminder, the Papp A→B is the apparent permeability from the apical to the basolateral side of a cell layer. For orientation: clearance means the volume of plasma or blood freed of the substance per unit of time. Low readings indicate a low capacity for elimination, high ones a high capacity for elimination. As a reminder, the logD is lipophilicity at a set pH, counting ionised and neutral species. Read a low logD as lower lipophilicity. In data set [7], `O=C(CCCCCCC(=O)Nc1ccccc1)NO` [VORINOSTAT] yielded a bioavailability of 8.3%. Further, the half-life was over 30 min in [8], over 30 min in data set [11], over 60 min in data set [5] and 22.8 min in data set [16]. The Papp A→B in data set [9] turned out to be 1.7 ×10⁻⁶ cm/s. In data set [10], this compound showed a clearance of 112 mL/min/kg. Moreover, in [12], the Vd is 0.81 L/kg. The MTD in data set [13] is 160 mg/kg. For the same compound, the outcome in the data set on HCT-116 [14] was Active. The compound also displayed a solubility in data set [4] of over 250 µM. Besides, the logD in data set [15] is 1.04. Besides, in data set [17], the solubility thermodynamic is 166 µg/mL (≈ 628 µM).

In the case of `O=C(CCCCCNC(=O)NC(=O)c1ccc(NS(=O)(=O)c2ccccc2)cc1)NO`, the IC50 was over 100000 nM against Histone deacetylase 1 [1] and 97 nM on Histone deacetylase 1 [3].

Turning to `O=C(CCCCCN(Cc1ccccn1)C(=O)NC(=O)c1ccccc1)NO`, the values for the IC50 on Histone deacetylase 1 [1] and against Histone deacetylase 1 [3] were 14700 nM and 245 nM, respectively.

For `O=C(CCCCCNC(=O)NC(=O)c1ccc2c(c1)ncn2CCc1ccccc1)NO`, the IC50 on Histone deacetylase 1 [1] came out at 9700 nM; on Histone deacetylase 1 [3], 25 nM.

On to `O=C(CCCNC(=O)NC(=O)c1ccccc1)NO`, for which the IC50 on Histone deacetylase 1 [3] and on Histone deacetylase 8 was over 10000 nM throughout.

Consider `CCCCc1nc2cc(C(=O)NC(=O)NCCCCCC(=O)NO)ccc2n1CCN1CCCC1`, for which the IC50 was determined as 3520 nM in the data set with HCT-116 [6]; 2910 nM against Histone deacetylase 1 [1]; 22 nM against Histone deacetylase 1 [3]; 1250 nM with PC-3; 1350 nM in the data set with A2780. In data set [5], this compound came in with a half-life of over 30 min. The outcome on Histone deacetylase 1 [2] was Active. The compound also gave a solubility in [4] of over 211 µM.

`O=C(CCCCCNC(=O)NC(=O)c1ccc2ccccc2c1)NO`: the IC50 was 2150 nM on Histone deacetylase 1 [1] and 6 nM against Histone deacetylase 1 [3].

With `CN1CCN(c2ccc(C(=O)NC(=O)NCCCCCC(=O)NO)cc2[N+](=O)[O-])CC1`, the IC50 at Histone deacetylase 1 [1] came to 11500 nM; on Histone deacetylase 1 [3], 43 nM.

Turning to `Nc1cc(C(=O)NC(=O)NCCCCCC(=O)NO)ccc1Cl`, the IC50 was determined as 1250 nM on Histone deacetylase 1 [1] and 11 nM on Histone deacetylase 1 [3].

Consider `O=C(CCCCCN(CCCc1ccccc1)C(=O)NC(=O)c1ccccc1)NO`, for which the IC50 is 392 nM at Histone deacetylase 1 [3] and 328 nM at Histone deacetylase 8.

Regarding `O=C(CCCCCNC(=O)NC(=O)c1ccc(N2CCOCC2)c([N+](=O)[O-])c1)NO`, the IC50 on Histone deacetylase 1 [1] is 12000 nM; on Histone deacetylase 1 [3], 55 nM.

`CN(C)CCn1cnc2cc(C(=O)NC(=O)NCCCCCC(=O)NO)ccc21`: the IC50 was found to be 19500 nM on Histone deacetylase 1 [1] and 49 nM against Histone deacetylase 1 [3].

On to `CCN(CC)CCNc1ccc(C(=O)NC(=O)NCCCCCC(=O)NO)cc1[N+](=O)[O-]`, for which the half-inhibitory concentration (IC50) came to 1700 nM against Histone deacetylase 1 [1] and 20 nM against Histone deacetylase 1 [3].

On to `O=C(CCCCCCNC(=O)NC(=O)c1ccccc1)NO`, for which the IC50 at Histone deacetylase 1 [1] turned out to be 2680 nM; at Histone deacetylase 1 [3], 145 nM. Also, the outcome on Histone deacetylase 1 [2] was Active.

Turning to `O=C(CCCCCNC(=O)NC(=O)c1ccc(I)cc1)NO`, the IC50 on Histone deacetylase 1 [1] worked out at 870 nM; at Histone deacetylase 1 [3], 8 nM.

Take `O=C(CCCCCNC(=O)NC(=O)c1ccc(F)cc1)NO`: the IC50 against Histone deacetylase 1 [1] was 2550 nM; on Histone deacetylase 1 [3] it was 115 nM.

In the case of `O=C(CCCCCNC(=O)NC(=O)c1ccc2c(c1)nc(CCc1ccccc1)n2CCN1CCCC1)NO`, the half-life in [5] turned out to be 21 min. Moreover, the results for the IC50 against Histone deacetylase 1 [1] and at Histone deacetylase 1 [3] were 5380 nM and 34 nM, respectively. Moreover, the outcome at Histone deacetylase 1 [2] was Active. For the same compound, the solubility in data set [4] is over 250 µM.

With `O=C(CCCCCNC(=O)NC(=O)c1ccc(N2CCCCC2)c([N+](=O)[O-])c1)NO`, the values for the IC50 against Histone deacetylase 1 [1] and against Histone deacetylase 1 [3] were 3250 nM and 46 nM, respectively.

As to `O=C(CCCCCNC(=O)NC(=O)c1ccc2c(c1)ncn2CCCc1ccccc1)NO`, the IC50 against Histone deacetylase 1 [1] was determined as 3750 nM; against Histone deacetylase 1 [3], 20 nM.

Regarding `O=C(CCCCCNC(=O)NC(=O)c1cccc([N+](=O)[O-])c1)NO`, the IC50 at Histone deacetylase 1 [1] was found to be 2800 nM; at Histone deacetylase 1 [3] it was 92 nM.

`O=C(CCCCCCN(Cc1ccccc1)C(=O)NC(=O)c1ccccc1)NO`: the IC50 against Histone deacetylase 1 [3] was determined as 1600 nM.

As to `CCN(CC)CCn1cnc2cc(C(=O)NC(=O)NCCCCCC(=O)NO)ccc21`, the IC50 at Histone deacetylase 1 [1] came to 5100 nM; at Histone deacetylase 1 [3] it was 21 nM.

For `O=C(CCCCCNC(=O)NC(=O)c1c(Cl)cccc1Cl)NO`, the values for the IC50 at Histone deacetylase 1 [1] and against Histone deacetylase 1 [3] were 2950 nM and 185 nM, respectively.

Consider `O=C(CCCCCNC(=O)NC(=O)c1ccc([N+](=O)[O-])cc1)NO`, for which the half-inhibitory concentration (IC50) at Histone deacetylase 1 [1] is 2310 nM; at Histone deacetylase 1 [3] it was 45 nM. At Histone deacetylase 1 [2], the result was Active.
